The source of these data is US20120328631A1, “EP1 INHIBITION” (UNIVERSITY OF ROCHESTER, priority 2010, published 2012).

Format in all cases: cell-based, mouse
In one series the test system is fibronectin. In words: Fibronectin expression in bone marrow cells (Western blotting, real-time PCR). As for the experimental part:
Bone marrow cells were collected from 10-week-old EP1^−/− and wild-type mice and treated with 3 μM PGE2 for 24 hours before harvest. Total protein was extracted from the cultured cells at day 17 and RNA was extracted at days 10, 12, 14, 17 and 21 after culture. Western blotting (FIG. 10A) and real-time PCR (FIG. 10B) were performed to examine the expression levels of fibronectin. […] Statistical comparisons were performed using 2-way ANOVA followed by Dunnett's test. a=P<0.05 vs. wild-type, b=P<0.05 vs. control, c=P<0.05 vs. PGE2.
(§1) Relative RNA levels of EP1 and fibronectin were determined by real-time PCR (FIGS. 11A and 11B). Immunohistochemistry was performed using mouse fibronectin primary antibody on the femur fracture tissue samples collected from 10-week-old EP1^−/− and wild-type mice at 3 and 7 days post-fracture (FIG. 11C). Statistical comparisons were performed using 2-way ANOVA followed by Student's t-test. a=P<0.05 vs. wild-type, b=P<0.05 vs. control, c=P<0.05 vs. PGE2.
(§2) Mice were sacrificed post fracture at 3, 7, 10, 14, 21 and 28 days (N=4). Fracture callus tissue samples were carefully dissected from soft tissue and homogenized using the TissueLyzer (Qiagen; Valencia, Calif.). Total RNA was then extracted from homogenized samples by the RNeasy Fibrous Tissue Midi Kit (Qiagen) according to the manufacturer's instructions. One microgram aliquots of RNA were reverse transcribed into cDNA using the iScript cDNA Synthesis Kit (Bio-Rad; Hercules, Calif.). Real-time […] was performed using the Rotor Gene 6000 real-time DNA amplification system (Qiagen) according to the manufacturer's instruction. […]
Bone marrow cells were washed with cold phosphate-buffered saline (PBS) three times and lysed on ice in Golden Lysis Buffer (GLB) for 30 minutes as previously described (Li et al., Exp. Cell Res. 300:159-69 (2004)). […] The immune complexes were detected using NBT/BCIP substrate (Pierce Biotechnology).
In general terms: In western blotting, separated proteins are transferred to a membrane and probed.

In the next series the test system is EP2 and EP4 receptors. In words: cAMP-Glo Assay in bone marrow cell cultures. More on the design: dose or concentration left out as unconfirmed. The conditions noted are these: bone marrow cell cultures from wild type and EP1−/− mice. The method, then: Bone marrow cells were isolated from 10-week-old EP1^−/− mice and wild-type mice. After culturing for 7 days, cells were treated with PGE2 ([…]) or vehicle for 24 hours. […] The representative photomicrographs are shown at 200× original magnification. Statistical comparisons were performed using Student's T-test. “a” indicates p<0.05 compared to wild-type, “b” indicates p<0.05 compared to EP1^−/−. β-actin served as the loading control.
(§3) Bone marrow cells were isolated from 10-week-old EP1^−/− and C57BL/6J mice. Cells were cultured in 2 ml α-MEM containing 10% FBS at 5×10^6 cells/well in 6-well plates. After being cultured for 7 days, the medium was replaced with media containing beta-glycerophosphate and ascorbic acid, and the media was changed every two days thereafter. Cells were harvested on day 10, 12, 14, 17 and 21 after plating for alkaline phosphatase and alizarin red staining, and mRNA analysis by quantitative real-time PCR. Cell proliferation was examined using the Cell Proliferation ELISA BrdU (colorimetric) immunoassay kit (Roche; Indianapolis, Ind.) according to the manufacturer's instructions. Cell viability was examined using the CellTiter-Blue Cell Viability Assay (Promega; Madison, Wis.) according to the manufacturer's instructions. Intracellular cAMP activity in bone marrow cells was examined using the cAMP-Glo Assay (Promega) according to the manufacturer's instructions.

The test system of series [1] is primary bone marrow stromal cells. Nature of the series: Bone nodule formation / mineralization (Alizarin red staining) in bone marrow cell cultures. The method, then:
(§4) An EP1 expression vector was transfected into the EP1^−/− bone marrow cells by electroporation. […] Bone marrow progenitor cells at day 12 after culture were treated with SC19220 (10 μm) for 30 minutes followed by treatment with PGE2 (3 μm). After 24 hours, cells were stained with Alizarin red (FIGS. 12C and 12D). RNA extracted from the cultures was examined for osteocalcin expression (FIG. 12E). Statistical comparisons were performed using Student's t-test. a=P<0.05 vs. control, b=P<0.05 vs. PGE2.
Increasing concentrations of fibronectin were added to bone marrow cell cultures at day 12. 24 hours later, cells were stained with Alizarin Red (FIGS. 13A and 138) or harvested for real-time PCR (FIG. 13B). Statistical comparisons were performed using Student's t-test, a=P<0.05 vs. control.
as §3

A further series concerns osteocalcin. Nature of the series: Osteocalcin expression by real-time PCR in bone marrow cell cultures. The conditions noted are these: cultures treated with SC19220 and PGE2, RNA. The method, then:
as §4
as §3, with “Intracellular cAMP activity in bone marrow cells was examined using the cAMP-Glo Assay (Promega) according to the manufacturer's instructions.” left out
(In general: In qPCR the cycle at which signal appears reflects the starting amount.)

A further series relates to EP1 mRNA. Nature of the series: siRNA knock down of EP1 expression in primary bone marrow stromal cells (real-time PCR). The conditions noted are these: primary bone marrow stromal cells transfected with EP1 siRNA. As for the experimental part:
as §1, §2
To further confirm regulation of fibronectin by the PGE2-EP1 signaling pathway, siRNA as described above was used to knock down EP1 expression in primary bone marrow stromal cells. […] Fibronectin expression levels were examined by quantitative real-time PCR.

For the compound `CCCCC[C@H](O)/C=C/[C@H]1[C@H](O)CC(=O)[C@@H]1C/C=C\CCCC(=O)O` [PGE2], the fibronectin expression result with fibronectin (cells with control siRNA, quantitative real-time PCR) was “stimulate fibronectin expression”. In addition, in the series with fibronectin (wild-type bone marrow cells compared with EP1−/− cells, 3 μM PGE2 for 24 hours), the “expression of fibronectin (protein and mRNA)” value is “dramatically increased”. The “levels of cAMP” value with EP2 and EP4 receptors is “similarly enhanced”.
As for `CC(=O)NNC(=O)N1Cc2ccccc2Oc2ccc(Cl)cc21` [SC19220, 8-chloro-dibenz[b,f][1,4]oxazepine-10(11H)-carboxy-(2-acetyl)hydrazide], in series [1] (primary bone marrow cell cultures at day 12, SC19220 (10 μm) for 30 minutes, then PGE2 (3 μm), 24 hours, Alizarin red), the bone nodule formation entry is recorded as “accelerated bone nodule formation”. Also, the “time in culture at which bone nodule formation was induced” value in series [1] (wild-type cells, 12 day cultures treated with antagonist and PGE2 for 24 hours, untreated cultures typically form nodules following 14 days) is on record as no more than 13 days. Also, the “expression level of osteocalcin” value in the series with osteocalcin is given as “increased”.
Regarding “EP1 siRNA: siRNA used to knock down EP1 expression; example sequences SEQ ID NO:21 and SEQ ID NO:22 (chain 1 AGCUUGUCGGUAUCAUGGUTT; chain 2 ACUUCUAAGCACACCAGATT; chemistry not given here)”, in the series with fibronectin (cells transfected with EP1 siRNA vs control siRNA, quantitative real-time PCR), the PGE2-stimulated fibronectin expression result was “inhibited”. Moreover, the “decrease of EP1 mRNA” value in the series on EP1 mRNA is listed as “about 40%”.
As for fibronectin, the bone nodule formation result in series [1] (wild-type bone marrow cells, 5 μg/ml fibronectin added at day 12, 24 hours, alizarin red) is on record as “did not alter bone nodule formation”. Moreover, the mineralization entry is reported as “significantly reduced mineralization” in series [1] (wild-type bone marrow cells, 12.5 μg/ml fibronectin added at day 12, 24 hours, alizarin red) and “significantly reduced mineralization” in series [1] (wild-type bone marrow cells, 25 μg/ml fibronectin added at day 12, 24 hours, alizarin red).
